Assay results reported in US10287277B2, “Fumagillol derivatives and polymorphs thereof” (SynDevRx, Inc., priority 2015, dated 2019).

Columns and labels:
U266 (Myeloma) = assay: Single agent cell viability assay (CellTiter-Glo), 72 h continuous exposure; format: cell-based; conditions: Homo sapiens, U-266, U266 cells
Procedure: (§1) The half-maximal inhibitory concentration(s) (IC50) of Formula I as a single agent against a panel of human hematological tumor cell lines was investigated. All cell lines were grown in their respective proper growth media supplemented with 5-10% FBS and housed in an atmosphere of 5% CO2 at 37° C.
(§2) Cell Viability Assay—72 Hours Continuous Exposure Time
(§3) 1. 0 hr: Cells were plated in growth media in 96-well microtiter plates at a 200 μL volume. Cells were incubated for 24 hours at 37° C. in a humidified incubator.
(§4) 2. 24 hr: The test agent's drug doses were achieved using HP D300 Digital Dispenser. Briefly, the digital dispenser added test agent in a DMSO solvent at precise volumes to media containing wells. Control wells received equivolumes of DMSO that test agents wells received. Following drugging, cells were exposed at the concentrations and dilutions described in Table 20 for 72 hours at 37° C. in a humidified incubator.
(§5) 3. 72 hr: Following 72 hour exposure, 100 μl of a 1:1 mixture of sterile water and CellTiter-Glo® Reagent was added to each well. The plates are incubated for 60 minutes at room temperature. After incubation, luminescence was recorded using a luminometer. The results are shown below in Table 21 and in FIGS. 15A, 15B, 15C and 15D.
(§6) Data is expressed as the percent cell growth of the untreated (vehicle) control calculated from the luminescence signals. The surviving fraction of cells was determined by dividing the mean luminescence values of the test agents by the mean luminescence values of untreated control. The inhibitory concentration value for the test agent(s) and control was estimated using Prism 6 software (GraphPad Software, Inc.) by curve-fitting the data using the non-linear regression analysis.

[1] = tested on: Jeko-1 (Mantle Cell Lymphoma); assay: as above; format: cell-based; conditions: Homo sapiens, Jeko-1 cells
Procedure: as §1, §2, §3, §4, §5, §6

BC-1 (B-Cell Lymphoma) = assay: as above; format: cell-based; conditions: Homo sapiens, BC1, BC-1 cells
Procedure: as §1, §2, §3, §4, §5, §6

[2] = tested on: SU-DHL-10 (Diffuse Large B-Cell Lymphoma); assay: as above; format: cell-based; conditions: Homo sapiens, SU-DHL10, SU-DHL-10 cells
Procedure: as §1, §2, §3, §4, §5, §6

[3] = Storage stability, 25° C., 60% RH; format: physicochemical; conditions: for Appearance / Impurity Compound 2 / Impurity Compound 4 / Impurity Compound 5 / Largest individual unknown impurity / Total Impurities / Water Content: 25° C., 60% RH
Procedure: (§7) As shown below, the compounds can remain >99% pure after being held at 25° C. and 60% relative humidity for six months. The compounds can remain >95% pure after being held at 40° C. and 75% relative humidity for six months.

[4] = Storage stability, 40° C., 75% RH; format: physicochemical; conditions: for Appearance / Impurity Compound 2 / Impurity Compound 4 / Impurity Compound 5 / Largest individual unknown impurity / Total Impurities / Water Content: 40° C., 75% RH
Procedure: as §7

[5] = Stability of salt forms versus free base (statement in words); conditions: comparison of free base, hemi-tartrate and benzenesulfonic acid salt

## CC(C)C[C@H](NC(=O)[C@H](Cc1ccccc1)NC(=O)c1cnccn1)B(O)O [Bortezomib, reference compound]
U266 (Myeloma)
  IC50: 0.0024 µM
[1]
  IC50: 0.4 µM

## COC1C(OC(=O)N[C@H]2CC[C@H](N)CC2)CC[C@]2(CO2)C1C1(C)O[C@@H]1CC=C(C)C (stereo partly drawn) [Formula I, (1R,4r)-4-(((((3R,4S,5S,6R)-5-methoxy-4-((2R,3R)-2-methyl-3-(3-methylbut-2-en-1-yl)oxiran-2-yl)-1-oxaspiro[2.5]octan-6-yl)oxy)carbonyl)amino)cyclohexan-1-aminium benzenesulfonate]
U266 (Myeloma)
  IC50: 54.6 µM
BC-1 (B-Cell Lymphoma)
  IC50: 20.4 µM
[1]
  IC50: 30.7 µM
[2]
  IC50: 6.2 µM

## CO[C@@H]1[C@H](OC(=O)N[C@H]2CC[C@H](N)CC2)CC[C@]2(CO2)[C@H]1[C@@]1(C)O[C@@H]1CC=C(C)C.O=S(=O)(O)c1ccccc1 [Form II of Formula I, fumagill-6-yl N-(trans-4-aminocyclohexyl)carbamate benzenesulfonic acid salt]
[3]; 0 Months
  Appearance: White powder,
  Impurity Compound 2: <0.1%
  Impurity Compound 4: <0.1%
  Impurity Compound 5: 0.1%
  Largest individual unknown impurity: <0.1%
  Total Impurities: 0.1%
  Water Content: 0.41%
[3]; 1 Month
  Appearance: White powder,
  Impurity Compound 2: 0.3%
  Impurity Compound 5: 0.1%
  Largest individual unknown impurity: <0.1%
  Total Impurities: 0.5%
  Water Content: 0.60%
[3]; 2 Months
  Appearance: White powder,
  Impurity Compound 2: 0.4%
  Impurity Compound 4: 0.1%
  Impurity Compound 5: 0.1%
  Largest individual unknown impurity: <0.1%
  Total Impurities: 0.5%
  Water Content: 0.57%
[3]; 3 Months
  Appearance: White powder,
  Impurity Compound 2: 0.5%
  Impurity Compound 4: 0.1%
  Impurity Compound 5: 0.1%
  Largest individual unknown impurity: <0.1%
  Total Impurities: 0.7%
  Water Content: 1.73%
[3]; 6 months
  Appearance: White powder,
  Impurity Compound 2: 0.6%
  Impurity Compound 4: 0.1%
  Impurity Compound 5: 0.1%
  Largest individual unknown impurity: <0.1%
  Total Impurities: 0.9%
  Water Content: 1.58%
[3]; held at 25° C. and 60% relative humidity for six months
  purity remaining after storage: > 99%
[4]; 0 Months
  Appearance: White powder,
  Impurity Compound 2: <0.1%
  Impurity Compound 4: <0.1%
  Impurity Compound 5: 0.1%
  Largest individual unknown impurity: <0.1%
  Total Impurities: 0.1%
  Water Content: 0.41%
[4]; 1 Month
  Appearance: White powder,
  Impurity Compound 2: 1.0%
  Impurity Compound 5: 0.1%
  Largest individual unknown impurity: 0.2%
  Total Impurities: 1.5%
  Water Content: 1.54%
[4]; 2 Months
  Appearance: White powder,
  Impurity Compound 2: 1.4%
  Impurity Compound 4: 0.3%
  Impurity Compound 5: 0.1%
  Largest individual unknown impurity: 0.3%
  Total Impurities: 2.4%
  Water Content: 1.19%
[4]; 3 Months
  Appearance: White powder,
  Impurity Compound 2: 1.6%
  Impurity Compound 4: 0.5%
  Impurity Compound 5: 0.2%
  Largest individual unknown impurity: 0.4%
  Total Impurities: 3.1%
  Water Content: 2.57%
[4]; 6 months
  Appearance: White powder,
  Impurity Compound 2: 1.5%
  Impurity Compound 4: 1.4%
  Impurity Compound 5: 0.5%
  Largest individual unknown impurity: 0.3%
  Total Impurities: 4.2%
  Water Content: 3.19%
[4]; held at 40° C. and 75% relative humidity for six months
  purity remaining after storage: > 95%

## COc1cccc2c1C(=O)c1c(O)c3c(c(O)c1C2=O)C[C@@](O)(C(=O)CO)C[C@@H]3O[C@H]1C[C@H](N)[C@H](O)[C@H](C)O1 [Adriamycin, reference compound]
BC-1 (B-Cell Lymphoma)
  IC50: 0.02 µM
[2]
  IC50: 0.00085 µM

## COC1C(OC(=O)N[C@H]2CC[C@H](N)CC2)CCC2(CO2)C1C1(C)OC1CC=C(C)C (stereo partly drawn) [free base form of Formula I, fumagill-6-yl N-(trans-4-aminocyclohexyl)carbamate]
[5]
  stability (in words): inherently unstable
